Paper PMC11470414, “In vitro assessment of Dracocephalum lindbergii for growth inhibition, apoptosis induction, and cytokine modulation against Leishmaniamajor” (Heliyon, 2024)
Values after ≈ are worked out from the molar mass of the structure shown. Like-named read-outs stand apart in the source and are kept apart here.

How the values were obtained:
[1] = test system: L. major intramacrophage amastigotes; experiment: Anti-amastigote activity: counting Leishman bodies in 100 Giemsa-stained macrophages; format: cell-based, Leishmania major; details: for IC50: Leishmania major, Macrophage
Procedure: To assess the leishmanicidal effect on L. major intramacrophage amastigotes, macrophages (10⁷ cells) were cultured for 24 h. Subsequently, 200 μL of metacyclic promastigotes were introduced to the macrophages at a 10:1 ratio. […] The cells were washed with 50 μL PBS to eliminate free parasites, fixed with methanol, and stained using Giemsa. The IC₅₀, defined as the concentration required to inhibit 50 % of the leishmanial organisms, was determined by counting Leishman bodies (amastigotes) in 100 macrophages under an optical microscope. All experiments were performed in triplicate.
To evaluate the leishmanicidal effects on L. major intramacrophage amastigotes, macrophages (1 × 10⁷ cells) were cultured for 24 h. Following this, 200 μL of metacyclic promastigotes were added to the macrophages at a 10:1 ratio. […] The cells were then washed with 50 μL PBS to remove any free parasites, fixed in methanol, and stained with Giemsa. The IC₅₀, or the concentration that inhibits 50 % of the leishmanial organisms, was assessed by counting Leishman bodies (amastigotes) in 100 macrophages under an optical microscope. Each experiment was conducted in triplicate, including negative controls (macrophages and parasites without treatment) and positive controls (macrophages and parasites treated with a known effective drug) for comparison.

[2] = test system: L. major amastigotes; experiment: Apoptotic profile by flow cytometry (PE-Annexin V / 7-AAD); format: cell-based, Leishmania major; details: 100 μg/mL, vs negative control P < 0.001
Procedure: Apoptosis in L. major amastigotes was evaluated using flow cytometry with the BD Annexin V/PE Apoptosis Detection Kit (Fisher Scientific). […] After treatment, the parasites were washed with PBS and incubated in the dark at 25 °C with 5 μL of PE-Annexin V and 7 μL of 7-AAD for 15 min. The proportion of apoptotic parasites was then evaluated using FlowJo software.

[3] = test system: L. major promastigotes; experiment: Anti-promastigote activity (MTT, IC50); format: cell-based, Leishmania major; details: for IC50: Leishmania major
Procedure: (§1) To assess the impact of the D. lindbergii fraction on L. major promastigotes, amastigotes, and macrophages, cell viability was determined using the 3-(4,5-dimethylthiazol-2-yl)-2,5-diphenyl tetrazolium bromide (MTT). L. major in the logarithmic growth phase (1 × 10⁶) was plated in a 96-well microplate using RPMI-1640 medium supplemented with 10 % FBS and treated with different concentrations of the samples. The plates were then incubated. Subsequently, 10 μL of MTT (Sigma Chemical Co., St. Louis, MO) at a concentration of 5 mg/mL was added to each well. After incubation, DMSO was added to stop the reactions, and the optical density (OD) absorbance of the samples was measured at 570 nm using an ELISA plate reader (BioTek Company, USA). The results were analyzed by calculating the inhibition percentage through linear regression.
Drug susceptibility assays were conducted using promastigotes in the logarithmic growth phase. A volume of 90 μL of cultured L. major promastigotes (1 × 10⁶ cells/mL) was transferred to each well of a 96-well microplate. […] The reactions were stopped, ELISA readings were taken, and the IC₅₀ (50 % inhibitory concentration) was calculated according to established protocols.

[4] = DPPH radical-scavenging antioxidant assay; details: DPPH method, 517 nm
Procedure: The scavenging effect on 2,2-diphenyl-1-picrylhydrazyl (DPPH) free radicals was determined based on the reduction of DPPH as a stable free radical. The optical densities were measured at a wavelength of 517 nm. The elimination of free radicals was calculated using the following formula:= (absorbance of control-absorbance of the sample) / (absorbance of control) × 100.

[5] = test system: L. major; set-up: method as in PMID 33531168; details: after 16 h of incubation; control 14 %; cited from earlier work
[6] = Toxicity on macrophages (MTT, CC50); format: cell-based; details: human, THP-1 macrophage cell line
Procedure: (§2) The promastigote form of L. major (MRHO/IR/75/ER), the national standard isolate, was obtained from the Pasteur Institute of Iran and cultured at 25 °C in RPMI-1640 medium containing 10 % heat-inactivated FBS and 1 % penicillin/streptomycin. The THP-1 macrophage cell line, provided by the Kerman Leishmaniasis Research Center, was grown in Dulbecco's Modified Eagle Medium (DMEM) supplemented with 10 % FBS and 0.5 % antibiotics (Sigma, Poole, UK), and incubated at 37 °C with 5 % CO₂ [21].
as §1

[7] = test system: macrophage cell line (THP-1); experiment: Toxicity on macrophages (MTT, CC50); format: cell-based
Procedure: as §2, §1

Molecule	average number of intramacrophage amastigotes (Mean ± SD) ([1]; 24 h, 12.5 μg/mL)	average number of intramacrophage amastigotes (Mean ± SD) ([1]; 24 h, 25 μg/mL)	average number of intramacrophage amastigotes (Mean ± SD) ([1]; 24 h, 50 μg/mL)	average number of intramacrophage amastigotes (Mean ± SD) ([1]; 24 h, 100 μg/mL)	average number of intramacrophage amastigotes (Mean ± SD) ([1]; 24 h, 200 μg/mL)	average number of intramacrophage amastigotes (Mean ± SD) ([1]; 24 h, 400 μg/mL)	average number of intramacrophage amastigotes (Mean ± SD) ([1]; 48 h, 12.5 μg/mL)	average number of intramacrophage amastigotes (Mean ± SD) ([1]; 48 h, 25 μg/mL)	average number of intramacrophage amastigotes (Mean ± SD) ([1]; 48 h, 50 μg/mL)	average number of intramacrophage amastigotes (Mean ± SD) ([1]; 48 h, 100 μg/mL)	average number of intramacrophage amastigotes (Mean ± SD) ([1]; 48 h, 200 μg/mL)	average number of intramacrophage amastigotes (Mean ± SD) ([1]; 48 h, 400 μg/mL)	average number of intramacrophage amastigotes (Mean ± SD) ([1]; 72 h, 12.5 μg/mL)	average number of intramacrophage amastigotes (Mean ± SD) ([1]; 72 h, 25 μg/mL)	average number of intramacrophage amastigotes (Mean ± SD) ([1]; 72 h, 50 μg/mL)	average number of intramacrophage amastigotes (Mean ± SD) ([1]; 72 h, 100 μg/mL)	average number of intramacrophage amastigotes (Mean ± SD) ([1]; 72 h, 200 μg/mL)	average number of intramacrophage amastigotes (Mean ± SD) ([1]; 72 h, 400 μg/mL)	induction of apoptosis in intra-macrophage amastigotes [2]	also measured
meglumine antimoniate [MAT]	31.1 ± 4.2	22.3 ± 3.1	18.6 ± 2.5	11.4 ± 2.2	2.1 ± 0.1	0.0 ± 0.0	39.6 ± 1.1	27.6 ± 1.8	18.4 ± 2.0	8.6 ± 0.9	2.2 ± 0.4	0.0 ± 0.0	49.3 ± 5.7	40.3 ± 6.4	31.2 ± 4.1	18.4 ± 2.5	8.6 ± 0.2	0.0 ± 0.0	significant induction of apoptosis	Amastigote (24 h) IC50 ± SD ([1]; 24 h): 127.3 ± 14.9; Amastigote (48h) IC50 ± SD ([1]; 48 h): 112.6 ± 9.5; Amastigote (72h) IC50 ± SD ([1]; 72 h): 93.6 ± 15.2; Promastigote (24 h) IC50 ± SD ([3]; 24 h): 301.8 ± 24.3; Promastigote (48h) IC50 ± SD ([3]; 48 h): 286.2 ± 17.3; Promastigote (72h) IC50 ± SD ([3]; 72 h): 251.6 ± 28.4
COc1ccc(O)c(C(C)(C)C)c1 [BHA, butylated hydroxyanisole]																				IC50 of DPPH radical scavenging [4]: 249.3 µg/mL
COc1cc(/C=C/C(=O)CC(=O)/C=C/c2ccc(O)c(OC)c2)ccc1O [curcumin]																				maximum accumulation of S-phase cells [5]: about 33%
C[C@@H]1[C@H](O)[C@@H](C)/C=C/C=C/C=C/C=C/C=C/C=C/C=C/[C@H](O[C@@H]2O[C@H](C)[C@@H](O)[C@H](N)[C@@H]2O)C[C@@H]2O[C@](O)(C[C@@H](O)C[C@@H](O)[C@H](O)CC[C@@H](O)C[C@@H](O)CC(=O)O[C@H]1C)C[C@H](O)[C@H]2C(=O)O [Amphotericin B]	34.2 ± 3.6	25.3 ± 4.2	20.4 ± 1.8	13.6 ± 2.6	3.6 ± 0.4	0.0 ± 0.0	41.4 ± 3.0	30.1 ± 2.2	21.6 ± 2.4	10.1 ± 1.9	2.6 ± 0.3	0.0 ± 0.0	50.4 ± 4.8	42.3 ± 5.2	33.4 ± 3.0	20.4 ± 2.4	10.3 ± 0.8	0.0 ± 0.0	significant induction of apoptosis	IC50 ([1]; 24 h, read-out: Amastigote (24 h) IC50 ± SD): 134 ± 18.6 µg/mL (≈ 145 µM); IC50 ([1]; 48 h, read-out: Amastigote (48h) IC50 ± SD): 129 ± 14.2 µg/mL (≈ 139 µM); IC50 ([1]; 72 h, read-out: Amastigote (72h) IC50 ± SD): 101 ± 18.3 µg/mL (≈ 110 µM); CC50 at 24 h ([6]; 24 h): 792 ± 28.6 µg/mL (≈ 857 µM); CC50 at 48 h ([6]; 48 h): 772 ± 24.6 µg/mL (≈ 836 µM); CC50 at 72 h ([6]; 72 h): 749 ± 18.6 µg/mL (≈ 810 µM); SI= CC50 Macrophages/IC50 Amastigotes (Selectivity Index) ([7]; 24 h): 5.93; SI = CC50Macrophages/IC50Amastigotes (Selectivity Index) ([7]; 72 h): 7.40; IC50 ([3]; 24 h, read-out: Promastigote (24 h) IC50 ± SD): 308 ± 22 µg/mL (≈ 333 µM); IC50 ([3]; 48 h, read-out: Promastigote (48h) IC50 ± SD): 294 ± 15.3 µg/mL (≈ 318 µM); IC50 ([3]; 72 h, read-out: Promastigote (72h) IC50 ± SD): 264 ± 20.7 µg/mL (≈ 285 µM)
